One compound from patent US7081449B2, “Pyrido[2,3-d]pyrimidine and pyrimido[4,5-d]pyrimidine nucleosides” (Valeant Research & Development, priority 2000, dated 2006) can be followed below.

Structures are written as SMILES.

What all share (type): cell-based
In test [1] the test system is Melanoma: LOX IM VI, MALME-3M, M14, SK-MEL-2, SK-MEL-28, ACC-257, UACC-62. Put plainly: Determination of EC50 in cancer cells, melanoma. The note with it: Melanoma cell lines; incubated at least 24 hours. Here is the method:
(§1) Cancer cells were incubated with 4-amino-5-oxo-8-(β-D-ribofuranosyl)pyrido[2,3-d]pyrimidine at various concentrations for a period of at least 24 hours and EC50 was determined. Table 1 gives in vitro activity of 4-amino-5-oxo-8-(β-D-ribofuranosyl)pyrido[2,3-d]pyrimidine in nM concentrations.

Another test deals with Pancreas: PaCa-2, PANC-1. Put plainly: Determination of EC50 in cancer cells, pancreas. The following applies: Pancreas tumor cell lines; incubated at least 24 hours. Here is the method:
as §1

Test [2] has as its system Colon: SW-620, KM 12, HT29, HCT-15, CHCT-116, HCC-2998, COLO-205. Put plainly: Determination of EC50 in cancer cells, colon. The note with it: Colon tumor cell lines; incubated at least 24 hours. How it is done:
as §1

In test [3] the test system is CNS: SF-268, SF-295, SF-539, SNB-19, SNB-75, U251. Put plainly: Determination of EC50 in cancer cells, CNS. The following applies: CNS tumor cell lines; incubated at least 24 hours. Here is the method: as §1
Test [4] relates to Kidney: 786-0, A498, ACHN, CAKI-1, RXF 393, UO-31. Put plainly: Determination of EC50 in cancer cells, kidney. The note with it: Kidney tumor cell lines; incubated at least 24 hours. Here is the method: as §1
In test [5] the test system is melanoma B16 and 140 cells, Leukemia cells (K562, M), and colon HT-29 cells. Put plainly: Anti-clonogenic activity in various cancer cells. The note with it: FIG. 3; compared against Ecyd and Gemzar. How it is done:
To determine the anti-clonogenic activity of contemplated compounds in various cancer cells experiments were conducted. […] Here again, 4-amino-5-oxo-8-(β-D-ribofuranosyl)pyrido[2,3-d]pyrimidine was used as a representative compound of contemplated compounds and compared against Ecyd and Gemzar.

A further test relates to RNA Polymerase I. Put plainly: RNA Polymerase I dependent RNA synthesis (28S and 18S rRNA processing). The note with it: FIG. 6. How it is done:
(§2) To further investigate the influence of contemplated compounds (here again represented by 4-amino-5-oxo-8-(β-D-ribofuranosyl)pyrido[2,3-d]pyrimidine) on RNA synthesis dependent on RNA Polymerase I, II, and III, experiments were conducted.

The test system of test [6] is Lung: NCI-H522, NCI-H460, NCI-H322M, NCI-H23, HOP-92, HOP-62, EKVX, A549. Put plainly: Determination of EC50 in cancer cells, lung. The note with it: Lung tumor cell lines; incubated at least 24 hours. How it is done:
as §1

Another test concerns K562 cells. Put plainly: Inhibition of RNA synthesis, H^3-Uridine incorporation. The following applies: various time periods and concentrations, FIG. 5. An excerpt: RNA synthesis was monitored in K562 cells using H^3-Uridine incorporation following a general protocol as outlined below.
In test [7] the test system is Leukemia: SR, RPMI 8226, MOLT-4, K-562, HL-60, CCRF-CEM. Put plainly: Determination of EC50 in cancer cells, leukemia. The note with it: Leukemia cell lines; incubated at least 24 hours. How it is done:
as §1

Another test concerns NB4 cells (Leukemia). Put plainly: Induction of apoptosis, histone-DNA ELISA. The following applies: FIGS. 4A and 4B. How it is done: (§3) In order to determine how contemplated compounds interact with cancer cells, NB4 cells (Leukemia) and Prostate 81 (prostate cancer cells) cells were incubated with 4-amino-5-oxo-8-(β-D-ribofuranosyl)pyrido[2,3-d]pyrimidine, Ecyd, and Gemzar, and apoptosis was monitored by histone-DNA ELISA.

For test [8], the system named is Prostate 81 (prostate cancer cells). Put plainly: Induction of apoptosis, histone-DNA ELISA. The note with it: Prostate 81 cells, FIGS. 4A and 4B. Here is the method:
as §3
A general note: An ELISA detects its analyte on a solid surface through an enzyme-linked reagent.

The test system of test [9] is Breast: MCF 7, NCI/ADR-RES, MDA-MB-435, BT-549, T-47D. Put plainly: Determination of EC50 in cancer cells, breast. The note with it: Breast tumor cell lines; incubated at least 24 hours. How it is done: as §1
For another test, the system named is Raf. Put plainly: MEK-ERK phosphorylation, autoradiograph, NB4 leukemic cells. The following applies: FIG. 8. Here is the method: (§4) To investigate the possibility of activation of the MEK-ERK signal transduction pathway by contemplated compounds an experiment was conducted. […] Consequently, it is contemplated that the compounds according to the inventive subject matter may induce apoptosis through activation of MEK (which can be abolished by inhibitors of the MEK-ERK pathway).

Another test relates to ERK. The test is described as above. The following applies: FIG. 8. How it is done: as §4
A further test deals with MEK. The test is described as above. The following applies: FIG. 8. How it is done: as §4
The next test relates to RNA Polymerase III. Put plainly: RNA Polymerase III dependent RNA synthesis. The note with it: FIG. 6. Here is the method: as §2
Test [10] deals with Liver: PLC/PRF5, Hep3B, Huh7. Put plainly: Determination of EC50 in cancer cells, liver. The following applies: Liver tumor cell lines; incubated at least 24 hours. How it is done: as §1
The test system of test [11] is Ovarian: IGROV1, OVCAR-3, OVCAR-4, OVCAR-5, SK-OV-3. Put plainly: Determination of EC50 in cancer cells, ovarian. The note with it: Ovarian tumor cell lines; incubated at least 24 hours. Here is the method:
as §1

In another test the test system is Prostate: PC-3, DU-145. Put plainly: Determination of EC50 in cancer cells, prostate. The note with it: Homo sapiens, Prostate tumor cell lines, incubated at least 24 hours. Here is the method:
as §1

A further test deals with RNA Polymerase II. Put plainly: RNA Polymerase II dependent RNA synthesis. The note with it: FIG. 7. Here is the method: as §2

For the compound `Nc1ncnc2c1c(=O)ccn2[C@@H]1O[C@H](CO)[C@@H](O)[C@H]1O` [4-amino-5-oxo-8-(β-D-ribofuranosyl)pyrido[2,3-d]pyrimidine], the EC50 (in general, the concentration at which the effect is half-maximal) came out at 30 nM in test [1]; 188 nM in the test on Pancreas: PaCa-2, PANC-1; 16 nM in [2]; 125 nM in test [3]; 44 nM in test [4]; 68 nM in test [6]. For the same compound, the EC50 was found to be 34 nM in test [7]; 18 nM in [9]; 288 nM in test [10]; 21 nM in [11]; 19 nM with Prostate: PC-3, DU-145. In test [5], the anti-clonogenic activity result is recorded as “significant anti-clonogenic activity”. The “inhibition of processing of 28S and 18S rRNA” value with RNA Polymerase I was “may inhibit processing of 28S and 18S rRNA”. In addition, the “inhibition of RNA synthesis” value in the test on K562 cells is reported as “inhibition of RNA synthesis”. Also, the induction of apoptosis result (in the test on NB4 cells (Leukemia); in test [8]) was “induce apoptosis in a dose dependent manner” in each case. Further, the “phosphorylation of Raf” value in the test on Raf is recorded as “do not enhance phosphorylation of Raf”. Also, the “phosphorylation of ERK” value in the test on ERK is “phosphorylation of MEK and ERK”. Besides, the “phosphorylation of MEK” value with MEK is on record as “enhance phosphorylation of MEK”. Besides, the “inhibition of RNA Polymerase III” value with RNA Polymerase III is “fail to significantly inhibit RNA Polymerase III”. For the same compound, the “inhibition of RNA-Polymerase II dependent RNA synthesis” value in the test with RNA Polymerase II is listed as “inhibit RNA-Polymerase II dependent RNA synthesis in a concentration dependent manner”.
